According to patent publication EP0726263A2, “Herbicidal (1,3,4)oxadiazoles and thiadiazoles” (American Cyanamid Company, priority 1995, dated 1996):

Key:
Assay type in all cases: in vivo
[1] = system: Viola arvensis; test: Herbicidal activity, postemergence test; conditions: post; sprayed onto seedling plants, 800 g of active material per hectare; evaluated 2 weeks after treatment
Summary of the method: (§1)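 First, test compound in acetone containing 0.4% Triton X-155 is diluted with water. Next, it is sprayed at 800 g/ha (900 L/ha) onto freshly seeded loam (pre) or onto seedlings (post). Finally, plants are scored 0-9 visually after 3 or 2 weeks, respectively.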

[2] = system: Galium aparine; test: Herbicidal activity, postemergence test; conditions: post; sprayed onto seedling plants, 800 g of active material per hectare; evaluated 2 weeks after treatment
Summary of the method: as §1

[3] = system: Gossypium hirsutum; test: Herbicidal activity, postemergence test; conditions: post; sprayed onto seedling plants, 800 g of active material per hectare; evaluated 2 weeks after treatment
Summary of the method: as §1

[4] = system: Ambrosia artemisifolia; test: Herbicidal activity, postemergence test; conditions: post; sprayed onto seedling plants, 800 g of active material per hectare; evaluated 2 weeks after treatment
Summary of the method: as §1

[5] = system: Hordeum vulgare; test: Herbicidal activity, postemergence test; conditions: post; sprayed onto seedling plants, 800 g of active material per hectare; evaluated 2 weeks after treatment
Summary of the method: as §1

[6] = system: Amaranthus retroflexus; test: Herbicidal activity, postemergence test; conditions: post; sprayed onto seedling plants, 800 g of active material per hectare; evaluated 2 weeks after treatment
Summary of the method: as §1

[7] = system: Ipomoea hederacea; test: Herbicidal activity, postemergence test; conditions: post; sprayed onto seedling plants, 800 g of active material per hectare; evaluated 2 weeks after treatment
Summary of the method: as §1

[8] = system: Zea mays; test: Herbicidal activity, postemergence test; conditions: post; sprayed onto seedling plants, 800 g of active material per hectare; evaluated 2 weeks after treatment
Summary of the method: as §1

[9] = system: Stellaria media; test: Herbicidal activity, postemergence test; conditions: post; sprayed onto seedling plants, 800 g of active material per hectare; evaluated 2 weeks after treatment
Summary of the method: as §1

[10] = system: Abutilon theophrasti; test: Herbicidal activity, postemergence test; conditions: post; sprayed onto seedling plants, 800 g of active material per hectare; evaluated 2 weeks after treatment
Summary of the method: as §1

[11] = system: Glycine max; test: Herbicidal activity, postemergence test; conditions: post; sprayed onto seedling plants, 800 g of active material per hectare; evaluated 2 weeks after treatment
Summary of the method: as §1

[12] = system: Veronica persica; test: Herbicidal activity, postemergence test; conditions: post; sprayed onto seedling plants, 800 g of active material per hectare; evaluated 2 weeks after treatment
Summary of the method: as §1

[13] = system: Lamium purpureum; test: Herbicidal activity, postemergence test; conditions: post; sprayed onto seedling plants, 800 g of active material per hectare; evaluated 2 weeks after treatment
Summary of the method: as §1

[14] = system: Triticum aestivum; test: Herbicidal activity, postemergence test; conditions: post; sprayed onto seedling plants, 800 g of active material per hectare; evaluated 2 weeks after treatment
Summary of the method: as §1

[15] = system: Setaria viridis; test: Herbicidal activity, postemergence test; conditions: post; sprayed onto seedling plants, 800 g of active material per hectare; evaluated 2 weeks after treatment
Summary of the method: as §1

[16] = system: Echinochloa crus-galli; test: Herbicidal activity, postemergence test; conditions: post; sprayed onto seedling plants, 800 g of active material per hectare; evaluated 2 weeks after treatment
Summary of the method: as §1

[17] = system: Alopecurus myosuroides; test: Herbicidal activity, postemergence test; conditions: post; sprayed onto seedling plants, 800 g of active material per hectare; evaluated 2 weeks after treatment
Summary of the method: as §1

[18] = system: Helianthus annuus; test: Herbicidal activity, postemergence test; conditions: post; sprayed onto seedling plants, 800 g of active material per hectare; evaluated 2 weeks after treatment
Summary of the method: as §1

[19] = system: Viola arvensis; test: Herbicidal activity, preemergence test; conditions: pre; sprayed onto soil, 800 g of active material per hectare; evaluated 3 weeks after treatment
Summary of the method: as §1

[20] = system: Galium aparine; test: Herbicidal activity, preemergence test; conditions: pre; sprayed onto soil, 800 g of active material per hectare; evaluated 3 weeks after treatment
Summary of the method: as §1

[21] = system: Gossypium hirsutum; test: Herbicidal activity, preemergence test; conditions: pre; sprayed onto soil, 800 g of active material per hectare; evaluated 3 weeks after treatment
Summary of the method: as §1

[22] = system: Ambrosia artemisifolia; test: Herbicidal activity, preemergence test; conditions: pre; sprayed onto soil, 800 g of active material per hectare; evaluated 3 weeks after treatment
Summary of the method: as §1

[23] = system: Hordeum vulgare; test: Herbicidal activity, preemergence test; conditions: pre; sprayed onto soil, 800 g of active material per hectare; evaluated 3 weeks after treatment
Summary of the method: as §1

[24] = system: Amaranthus retroflexus; test: Herbicidal activity, preemergence test; conditions: pre; sprayed onto soil, 800 g of active material per hectare; evaluated 3 weeks after treatment
Summary of the method: as §1

[25] = system: Ipomoea hederacea; test: Herbicidal activity, preemergence test; conditions: pre; sprayed onto soil, 800 g of active material per hectare; evaluated 3 weeks after treatment
Summary of the method: as §1

[26] = system: Zea mays; test: Herbicidal activity, preemergence test; conditions: pre; sprayed onto soil, 800 g of active material per hectare; evaluated 3 weeks after treatment
Summary of the method: as §1

[27] = system: Stellaria media; test: Herbicidal activity, preemergence test; conditions: pre; sprayed onto soil, 800 g of active material per hectare; evaluated 3 weeks after treatment
Summary of the method: as §1

[28] = system: Abutilon theophrasti; test: Herbicidal activity, preemergence test; conditions: pre; sprayed onto soil, 800 g of active material per hectare; evaluated 3 weeks after treatment
Summary of the method: as §1

[29] = system: Glycine max; test: Herbicidal activity, preemergence test; conditions: pre; sprayed onto soil, 800 g of active material per hectare; evaluated 3 weeks after treatment
Summary of the method: as §1

[30] = system: Veronica persica; test: Herbicidal activity, preemergence test; conditions: pre; sprayed onto soil, 800 g of active material per hectare; evaluated 3 weeks after treatment
Summary of the method: as §1

[31] = system: Lamium purpureum; test: Herbicidal activity, preemergence test; conditions: pre; sprayed onto soil, 800 g of active material per hectare; evaluated 3 weeks after treatment
Summary of the method: as §1

[32] = system: Triticum aestivum; test: Herbicidal activity, preemergence test; conditions: pre; sprayed onto soil, 800 g of active material per hectare; evaluated 3 weeks after treatment
Summary of the method: as §1

[33] = system: Setaria viridis; test: Herbicidal activity, preemergence test; conditions: pre; sprayed onto soil, 800 g of active material per hectare; evaluated 3 weeks after treatment
Summary of the method: as §1

[34] = system: Echinochloa crus-galli; test: Herbicidal activity, preemergence test; conditions: pre; sprayed onto soil, 800 g of active material per hectare; evaluated 3 weeks after treatment
Summary of the method: as §1

[35] = system: Alopecurus myosuroides; test: Herbicidal activity, preemergence test; conditions: pre; sprayed onto soil, 800 g of active material per hectare; evaluated 3 weeks after treatment
Summary of the method: as §1

[36] = system: Helianthus annuus; test: Herbicidal activity, preemergence test; conditions: pre; sprayed onto soil, 800 g of active material per hectare; evaluated 3 weeks after treatment
Summary of the method: as §1

[37] = system: Matricaria inodora; test: Herbicidal activity, postemergence test; conditions: post; sprayed onto seedling plants, 800 g of active material per hectare; evaluated 2 weeks after treatment
Summary of the method: as §1

[38] = system: Papaver rhoeas; test: Herbicidal activity, postemergence test; conditions: post; sprayed onto seedling plants, 800 g of active material per hectare; evaluated 2 weeks after treatment
Summary of the method: as §1

[39] = system: Matricaria inodora; test: Herbicidal activity, preemergence test; conditions: pre; sprayed onto soil, 800 g of active material per hectare; evaluated 3 weeks after treatment
Summary of the method: as §1

[40] = system: Papaver rhoeas; test: Herbicidal activity, preemergence test; conditions: pre; sprayed onto soil, 800 g of active material per hectare; evaluated 3 weeks after treatment
Summary of the method: as §1

SMILES | VIOAR control rating (0-9) [1] | GALAP control rating (0-9) [2] | GOSHI control rating (0-9) [3] | HORVW control rating (0-9) [5] | IPOHE control rating (0-9) [7] | ZEAMX control rating (0-9) [8] | ABUTH control rating (0-9) [10] | GLXMA control rating (0-9) [11] | VERPE control rating (0-9) [12] | LAMPU control rating (0-9) [13] | TRZAW control rating (0-9) [14] | SETVI control rating (0-9) [15] | ALOMY control rating (0-9) [17] | HELAN control rating (0-9) [18] | VIOAR control rating (0-9) [19] | GALAP control rating (0-9) [20] | GOSHI control rating (0-9) [21] | HORVW control rating (0-9) [23] | IPOHE control rating (0-9) [25] | ZEAMX control rating (0-9) [26] | further results
C[C@H](NC(=O)c1nnc(C(C)(C)C)o1)c1ccccc1 [Example 2, (S)-5-tert-Butyl-[1,3,4]oxadiazole-2-carboxylic acid (1-phenylethyl)amide] | 5 (definite injury) | 4 (injury) | 4 (injury) | 1 (trace effect) | 5 (definite injury) | 1 (trace effect) | 6 (herbicidal effect) | 3 (moderate effect) | 7 (good herbicidal effect) | 2 (slight effect) | 3 (moderate effect) | 4 (injury) | 0 (no effect) | 4 (injury) | 5 (definite injury) | 0 (no effect) | 0 (no effect) | 0 (no effect) | 0 (no effect) | 0 (no effect) | AMBEL control rating (0-9) [4]: 5 (definite injury); AMARE control rating (0-9) [6]: 6 (herbicidal effect); STEME control rating (0-9) [9]: 6 (herbicidal effect); ECHCG control rating (0-9) [16]: 3 (moderate effect); AMBEL control rating (0-9) [22]: 3 (moderate effect); AMARE control rating (0-9) [24]: 5 (definite injury); STEME control rating (0-9) [27]: 5 (definite injury); ABUTH control rating (0-9) [28]: 4 (injury); GLXMA control rating (0-9) [29]: 0 (no effect); VERPE control rating (0-9) [30]: 8 (approaching complete kill); LAMPU control rating (0-9) [31]: 0 (no effect); TRZAW control rating (0-9) [32]: 0 (no effect); SETVI control rating (0-9) [33]: 5 (definite injury); ECHCG control rating (0-9) [34]: 0 (no effect); ALOMY control rating (0-9) [35]: 2 (slight effect); HELAN control rating (0-9) [36]: 0 (no effect)
C[C@H](NC(=O)c1nnc(N(C)C)o1)c1ccccc1 [Example 6] | 0 (no effect) | 2 (slight effect) | 2 (slight effect) | 2 (slight effect) | 2 (slight effect) | 0 (no effect) | 2 (slight effect) | 0 (no effect) | 0 (no effect) | 1 (trace effect) | 1 (trace effect) | 0 (no effect) | 2 (slight effect) | 2 (slight effect) | 2 (slight effect) | 0 (no effect) | 0 (no effect) | 0 (no effect) | 0 (no effect) | 0 (no effect) | MATIN control rating (0-9) [37]: 0 (no effect); PAPRH control rating (0-9) [38]: 0 (no effect); MATIN control rating (0-9) [39]: 0 (no effect); PAPRH control rating (0-9) [40]: 0 (no effect); ABUTH control rating (0-9) [28]: 0 (no effect); GLXMA control rating (0-9) [29]: 0 (no effect); VERPE control rating (0-9) [30]: 0 (no effect); LAMPU control rating (0-9) [31]: 0 (no effect); TRZAW control rating (0-9) [32]: 0 (no effect); SETVI control rating (0-9) [33]: 0 (no effect); ALOMY control rating (0-9) [35]: 0 (no effect); HELAN control rating (0-9) [36]: 0 (no effect)
